Among the data in patent USRE46942E1, “4-piperidinyl compounds for use as tankyrase inhibitors” (NOVARTIS AG, priority 2011, dated 2018) are AC50, IC50 and viral growth values, retold here.

A word on the AC50: it is the concentration at which the activity in the assay is half-maximal. A word on the IC50: it is the concentration that gives 50% inhibition.

Test [1] deals with Axin2 protein in colorectal cell line SW480. Nature of the test: Cellular ELISA assay for stabilizing the Axin2 protein. The test is classed as cell-based. Particulars: Homo sapiens; SW480 cells, 24 hrs; read-out: Axin AC50. As to the method: Compound activity in stabilizing the Axin2 protein was measured by Sandwich Enzyme-Linked Immuosorbent (ELISA) assay in the colorectal cell line SW480. 30,000 SW480 cells were seeded per well in 96-well plate and incubated overnight prior to compound treatment. […] Cells were then washed with 100 μL of cold Phosphate Buffer Saline (PBS), and lysed in 125 μl of cold 1× lysis buffer (Cell Signaling Technology, 9803) supplemented with Protease inhibitor (Roche, 11836170) and Phosphatase inhibitors (Sigma, P2850, P5726). […] After blocking, plates were then washed three times with 300 μl/well of wash solution. 100 μL of prepared SW480 cell lysate was then added to each well and incubated at room temperature for 2 hours while shaking gently. After washing, 100 μL of Biotinylated anti-Axin2 antibody (CST, 2151) was added to each well and incubated room temperature for 2 hours. 100 μL of Streptavidin-HRP (R&D systems, DY998) diluted 1:200 in 1% BSA/PBS was then added in each well and incubate for 30 mins at R/T in the dark. Signal was detected by Chemiluminescence (Pierce SuperSignal ELISA Femto #3704), and measured on PerkinElmer Wallac 1420 plate reader.

Test [2] has as its system Non-small lung cancer ABC-1 cells. The experiment in a line: Cellular proliferation assay (CellTiter-Glo). The test is classed as cell-based. Particulars: Homo sapiens, 72 h, 3 days of compound treatment.
Procedure: Non-small lung cancer ABC-1 cells were plated at 5000 cells per well in 96-well plates and treated with 8 serial compound dilutions starting from 10 μM as the highest concentration. Viable cells were measured after 3 days of compound treatment using the CellTiter-Glo assay (Promega, G7570). Assay was performed following the manufacture protocol.
For test [3], the system named is Herpes Simplex Virus (HSV). Particulars: cited from earlier work.
Test [4] deals with Wnt ligand-induced signaling in HEK293 cells. Nature of the test: Wnt-responsive Super-TOp-Flash (STF) luciferase reporter gene assay. Particulars: Homo sapiens, Wnt3A condition medium. The test is classed as cell-based. How it is done: Compound activity in inhibiting Wnt ligand-induced signaling was measured using a Wnt-responsive Super-TOp-Flash (STF) luciferase reporter gene assay in HEK293 cells. On day 1 of the assay, cells were plated at a density of 8000 cells per well of 384-well plate in 25 μl medium containing 5% fetal bovine serum (FBS). […] On the third day, the luciferase activity was measured by the Bright-Glo™ Luciferase Assay System following manufacture's protocol (Promega, E2620).
In general terms: In a reporter assay the amount or activity of a reporter protein is the signal.

On to `COc1ccc(C(=O)C2CCN([C@@H]3CCN(CC(=O)Nc4nnc5n4CCS5)C3=O)CC2)cc1` (single isomer, unassigned) [Example 34], for which, in test [1], the concentration at half-maximal activity (AC50) is 0.078 ± 0.006 µM. Besides, in test [2], the IC50 is 0.049 µM.
For the compound `Oc1nc(-c2ccc(C(F)(F)F)cc2)nc2c1CSCC2` [XAV939], the viral growth result in test [3] was “decreased viral growth”.
For `COc1ccc(C(=O)C2CCN([C@H]3CCN(CC(=O)Nc4nnc5n4CCS5)C3=O)CC2)cc1` [Example 33, N-(5,6-dihydrothiazolo[2,3-c][1,2,4]triazol-3-yl)-2-((S)-3-(4-(4-methoxybenzoyl)piperidin-1-yl)-2-oxopyrrolidin-1-yl)acetamide], in test [1], the AC50 came out at 1.34 ± 0.11 µM. Moreover, the half-maximal inhibitory concentration (IC50) in test [2] turned out to be 1.61 µM.
Take `COc1ccc2c(c1)CC1(CCN([C@@H]3CCN(Cc4nc5c(c(=O)[nH]4)COCC5)C3=O)CC1)C2=O` [Example 17, (R)-2-((3-(5-methoxy-1-oxo-1,3-dihydrospiro[indene-2,4′-piperidine]-1′-yl)-2-oxopyrrolidin-1-yl)methyl)-7,8-dihydro-3H-pyrano[4,3-d]pyrimidin-4(5H)-one]: the half-inhibitory concentration (IC50) in test [4] turned out to be 0.396 ± 0.01 µM; in test [2], 2 ± 0.9 µM. The half-maximal activity concentration (AC50) in test [1] was found to be 1.79 ± 0.14 µM.
For the compound `COc1ccc2c(c1)CC1(CCN([C@H]3CCN(Cc4nc5c(c(=O)[nH]4)COCC5)C3=O)CC1)C2=O` [Example 16, (S)-2-((3-(5-methoxy-1-oxo-1,3-dihydrospiro[indene-2,4′-piperidine]-1′-yl)-2-oxopyrrolidin-1-yl)methyl)-7,8-dihydro-3H-pyrano[4,3-d]pyrimidin-4(5H)-one], the results for the IC50 in test [4] and in test [2] were 0.0017 ± 0.0002 µM and 0.082 µM, respectively. The half-maximal activity concentration (AC50) in test [1] amounted to 0.007 ± 0.001 µM.
